Test results from a melting point compilation (Tetko et al.).

SMILES	melting point [°C]
CNc1ccc2cc3ccc(N(C)S(C)(=O)=O)cc3nc2c1CO	150
COC(=O)c1scc(S(=O)(=O)C(C)C)c1N	139 to 143
CC(C)(CC(=O)O)c1ccccc1	60
C=CCc1ccccc1O	-6
CC(=O)OC1CCC2C3CCC4=CC(=O)CCC4(C)C3CCC12C (centres undefined)	140
CC1=CCC(C(C)(C)O)CC1 (centres undefined)	40.5
N#Cc1ccccc1N=C=S	119 to 120
CCC1(C2CCC(OC)CC2)C(=O)NC(=O)NC1=O (centres undefined)	239 to 240
CC1CCC2C1C1C(CCC2(C)O)C1(C)C (centres undefined)	105
O=C(O)C1(c2ccc(Cl)cc2Cl)CC1	140 to 147
COC(=O)c1ccc(/C=C/c2ccc(C(=O)OC)cc2)cc1	235
CC1(C)C2CCC1(C)C(N=C1C(=O)Nc3ccccc31)C2N=C1C(=O)Nc2ccccc21 (centres undefined)	234
Cc1cc(C)c(CS(=O)(=O)Cc2c(C)cc(C)cc2C)c(C)c1	297 to 300
Cc1nc(NC(=O)NS(=O)(=O)c2cccs2)nc(Cl)c1C	201 to 203
CC(=O)c1ccc(S(=O)(=O)NC(=O)NC2CCCCC2)cc1	188
Nc1ccc(-c2ccc(-c3ccc(N)cc3)cc2)cc1	247
FC(F)(F)C(F)(F)C(F)(F)C(F)(F)C(F)(F)C(F)(F)C(F)(F)C(F)(F)C(F)(F)C(F)(F)I	66
CCN(C(=O)n1nnn(-c2ccccc2Cl)c1=O)C1CCCCC1	79
CCOC(=O)NC(N)=O	196
Fc1cccc(-c2cccc(F)c2)c1	8
O=C(O)CC1C=CCC1 (centres undefined)	19
NC(=O)CF	108
CN1C(=O)Cc2cc(Br)ccc21	132 to 133
Nc1ccnc(Cl)c1	93
Cc1cc(C(C)(C)C)cc(C)c1CC1=NCCN1	131
CC1=C(C)C([Si](C)(C)C2C(C)=C(C)C(C)=C2C)C(C)=C1C	65 to 68

SMILES	melting point [°C]
O=C(Oc1cccc2c1CCC2=O)c1ccccc1	78 to 80
O=CNc1ccc(Cl)cc1C(=O)c1ccccc1	89 to 91
Nn1cnc2c(c(Br)nn2C2CCCCC2)c1=O	253 to 254
CC=NNc1ccc([N+](=O)[O-])cc1[N+](=O)[O-]	166
O=Cc1ccc(N2CCCC2)c([N+](=O)[O-])c1	103 to 105
C[C@]12CCC(=O)C[C@@H]1CC[C@@H]1[C@@H]2CC[C@]2(C)C(=O)C=C[C@@H]12	172 to 173
CC(O)CCc1ccc(CCC(C)O)cc1 (centres undefined)	42 to 46
NC(=O)CS(=O)C(c1ccccc1)c1ccccc1 (centres undefined)	164
CCCCCCCCC=CCCCCCCCC(=O)OC	9.5
COC(=O)C(C)N(C(=O)c1ccco1)c1c(C)cccc1C (centres undefined)	102
CN(C)Cc1c(O)c(Br)c(C(=O)O)c(Br)c1O	208
O=C(Nc1ccccc1)C(=O)Nc1ccccc1	254
CCCCCCCCCCCCCCCl	4.9
Cc1nc(CO)cs1	50
COC(=O)C1=C(C(=O)OC)C2(COC(=O)C(C)NC(C)=O)c3ccccc3C1c1ccccc12 (centres undefined)	180
Cc1cc(O)cc(C)c1C#N	176 to 177
NNc1ccc(I)cc1	101 to 102
C(=C(c1ccccc1)c1ccccc1)=C(c1ccccc1)c1ccccc1	140
O=Cc1c(Sc2ccc(Cl)cc2)nc2sccn12	139 to 141
CC(C)COC(=O)c1ccccc1O	5.9
CCCCCOC(=O)C1=C(C)NC(=O)NC1c1ccco1 (centres undefined)	166 to 167
O=C(Nc1ccc([N+](=O)[O-])cc1)C(F)(F)C(F)(F)C(F)(F)C(F)(F)C(F)(F)C(F)(F)C(F)(F)C(F)(F)F	119
c1ccc(C2=NC(c3ccccc3)C(c3ccccc3)N2)cc1 (centres undefined)	134
Cc1ncccc1N	117
CC(=O)C1CCC2(C)C(CCC3C4CCC(O)C4(C)CCC32)C1 (centres undefined)	145
CN(C)C(=O)c1ccccc1	44

Second part, the molecule after the results:

melting point [°C]	SMILES
175 to 177	Cc1ccccc1C=CC(=O)O
115	CC(C)(Oc1ccc(C2CC2(Cl)Cl)cc1)C(=O)O (centres undefined)
179	Cc1ccc([N+](=O)[O-])cc1C(=O)O
174 to 183	CC(=O)c1cc(Br)c(O)c(Br)c1
241	NC(=O)NN=CC(=O)c1ccc(C(=O)C=NNC(N)=O)c([N+](=O)[O-])c1
180	COC(=O)c1ccccc1OC1OC(COC2OCC(O)C(O)C2O)C(O)C(O)C1O (centres undefined)
128	CCS(=O)(=O)CCn1c([N+](=O)[O-])cnc1C
-10	Cc1ccc(C(C)(C)C)cc1S
162	NS(=O)(=O)c1ccc(F)c(C(F)(F)F)c1
76 to 78	Cc1nc(-c2ccccc2)sc1S(=O)(=O)Cl
97 to 99	S=C=Nc1ccc(-n2cccn2)cc1
48	C=CCc1cc(Cl)ccc1O
146	CCOC(=O)/C(=N\Nc1cc(Cl)ccc1Cl)C(=O)C(F)(F)F
210	O=C(O)c1ccc2[nH]ccc2c1
-80	Cc1cccc2cccnc12
156 to 158	Cc1cc(S(=O)(=O)Cc2ccc(N)cc2)c(C)cc1Cl
221	CCOC(=O)C1=NN(c2ccccc2)C(=O)C1C(Cl)C1C(=O)N(c2ccccc2)N=C1C(=O)OCC (centres undefined)
138 to 140	Nc1sccc1-c1nc2ccccc2s1
161	Clc1ncccc1-c1ccc(Br)nc1
72 to 75	O=C(c1ccccc1)c1ccc2c(c1)OCCCO2
300 to 302	O=C1[C@H]2CC3=C(CC=CC3)C[C@H]2C(=O)[C@H]2CC3=C(CC=CC3)C[C@@H]12
-129	C=CCCCC=C
94	OCCN1CCN(CCCN2c3ccccc3Sc3ccc(Cl)cc32)CC1
131	Nc1ccc(S(=O)(=O)c2ccc(NCCO)cc2)cc1

melting point [°C]	SMILES
159 to 169	CCC1(C)C=C/C(=N\NS(=O)(=O)c2ccc(C)cc2)CC1 (centres undefined)
200	O=C(O)CN(CC(=O)O)Cc1cc2c(cc1O)Oc1cc(O)c(CN(CC(=O)O)CC(=O)O)cc1C21OC(=O)c2ccccc21
97	CCC(C)OC(=O)C1=C2c3ncccc3ON2C(Cl)C(Cl)C1Cl (centres undefined)
210	O=c1c2ccccc2nc2n1CCC2O (centres undefined)
18	C#CC(=O)O
61	CCCCCCCCC(O)CCCCCCCC
69 to 73	CC(=O)c1cc(C)c(C)cc1O
245	Cn1c(/C(C#N)=N/Nc2cc(Cl)ccc2Cl)nc2ccccc21
38 to 40	N#Cc1ccc(CN2CCCCC2)cc1
150	NC(=O)c1ccccc1CO
140	CCOCCN(Cc1ccc(CN(CCOCC)C(=O)C(Cl)Cl)cc1)C(=O)C(Cl)Cl
48	CCCCCCCOC(=O)c1ccc(O)cc1
156	CC(=O)C1CCC2C3CC(C)C4=CC(=O)CCC4(C)C3C(O)CC12C (centres undefined)
136 to 139	O=C(Oc1ccccc1)c1cccc(C(=O)Oc2ccccc2)c1
17	CC(C)CS(=O)(=O)CC(C)C
285	Cn1c(=O)c(C2=NNC(=O)C2=Cc2c(O)ccc3ccccc23)c(O)c2ccccc21
78	COC1CCC(CC(=O)O)CC1 (centres undefined)
100	OCCN1CCN(CCCN2c3ccccc3C=Cc3ccccc32)CC1
160 to 164	O=Cc1c[nH]nc1-c1ccc(F)cc1
-37.5	C[Si](C)(Cl)O[Si](C)(C)Cl
102	O=[N+]([O-])c1c(Cl)ncnc1Cl
114	CC(C(O)c1ccc(O)cc1)N1CCC(Cc2ccccc2)CC1 (centres undefined)
233	CC1CC2C(C(O)CC3(C)C2CCC3(O)C(=O)CO)C2(C)C=CC(=O)C=C12 (centres undefined)
45	C1=CC2(CC2)C2C1C1C=CC2C12CC2 (centres undefined)

melting point [°C]	SMILES
211	CC(C)N=c1cc2n(-c3ccc(Cl)cc3)c3ccccc3nc-2cc1Nc1ccc(Cl)cc1
155	O=c1cc(C(F)(F)F)n2nc(-c3ccc(Cl)cc3)cc2[nH]1
37	O=C(O)C1(C(F)(F)F)CCCC1
66	O=C1CCCN1c1ccccc1
259	Cc1cccc(/N=N/c2c(C)[nH]c(=S)c(C#N)c2C)c1C
35	O=S(=O)(Cl)c1cc(F)c(Br)cc1F
169	CCN1CCN(C(=O)NC(C(=O)NC2C(=O)N3C(C(=O)O)=C(CSc4nnnn4C)CSC23)c2ccc(O)cc2)C(=O)C1=O (centres undefined)
98	CC(=O)c1ccc(Cl)c([N+](=O)[O-])c1
85 to 87	CC(=O)/C(=N\Nc1cccc(C(F)(F)F)c1)C(=O)C(F)(F)F
182	NC(=O)Cc1nc(-c2ccc(F)cc2)cs1
143 to 147	CSc1nsc(S)n1
29	N#CCOc1cccc(Cl)c1
130 to 132	N#Cc1cc(Cl)ccc1Cl
165 to 166	Cc1c(C(=O)O)cnn1-c1ccc(F)cc1
288	COc1ccc(C2C3=C(CC(C)(C)CC3=O)Nc3ccc4ccccc4c32)cc1 (centres undefined)
74	CCOC(=O)c1cccc(O)c1
132	CCOC(O)C(OC(C)=O)C(OC(C)=O)C(OC(C)=O)C(COC(C)=O)OC(C)=O (centres undefined)
67 to 69	Cc1ccc(C#N)cc1C
58	Cc1c(Cl)ccc(O)c1Cl
99	O=S(O)c1ccc(Cl)cc1
173	CC(C)(C)c1ccc(C(N)=O)cc1
141 to 143	Nc1cc(Cl)cnc1Br
81.5 to 83	O=C1Cc2cccc(Br)c21
150	Cc1cc(C(=O)O)c(C)n1C
